Laboratory results as given in ChEMBL document CHEMBL1201862, “PubChem BioAssay data set” (2004).
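Interpolation was linear, between the two tested concentrations surrounding the appropriate level; five concentrations were tested over 48 hours in 96-well plates. At the GI50, growth is halved.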 Activity calls are given as the source filed them. Rule as the data show it: active = GI50 up to about 1.1 µM and inactive = higher.

How the values were obtained:
Experiment in all cases: NCI anticancer screen, dose series, 48 h
TK-10 = system: TK-10
SR = system: SR
EKVX = system: EKVX
SK-MEL-2 = system: SK-MEL-2
OVCAR-5 = system: OVCAR-5
DU-145 = system: DU-145
K562 = system: K562
COLO 205 = system: COLO 205
OVCAR-3 = system: OVCAR-3
RXF 393 = system: RXF 393
NCI-H522 = system: NCI-H522
OVCAR-8 = system: OVCAR-8
SK-OV-3 = system: SK-OV-3
IGROV-1 = system: IGROV-1
SW-620 = system: SW-620
MDA-MB-435 = system: MDA-MB-435
U-251 = system: U-251
SK-MEL-28 = system: SK-MEL-28
HCT-15 = system: HCT-15
786-0 = system: 786-0
NCI-H226 = system: NCI-H226
SN12C = system: SN12C
CAKI-1 = system: CAKI-1
NCI/ADR-RES = system: NCI/ADR-RES
ACHN = system: ACHN
MCF7 = system: MCF7
A498 = system: A498
SF-539 = system: SF-539
SF-295 = system: SF-295
UACC-257 = system: UACC-257
HT-29 = system: HT-29
HOP-62 = system: HOP-62
A549 = system: A549
T47D = system: T47D
Malme-3M = system: Malme-3M
SNB-75 = system: SNB-75
MDA-N = system: MDA-N
HL-60 = system: HL-60
NCI-H23 = system: NCI-H23
UACC-62 = system: UACC-62
UO-31 = system: UO-31
LOX IMVI = system: LOX IMVI
SNB-19 = system: SNB-19
OVCAR-4 = system: OVCAR-4
HOP-92 = system: HOP-92
MDA-MB-231 = system: MDA-MB-231
MOLT-4 = system: MOLT-4
NCI-H460 = system: NCI-H460
HCT-116 = system: HCT-116
M14 = system: M14
CCRF-CEM = system: CCRF-CEM
SF-268 = system: SF-268
HCC 2998 = system: HCC 2998
PC-3 = system: PC-3
KM12 = system: KM12
BT-549 = system: BT-549
RPMI-8226 = system: RPMI-8226

Question: With `[O-][S+](CCCl)c1c2ccccc2nc2ccccc12` (stereo not given) as the molecule, how does the GI50 (TK-10) read?
Answer: > 100 µM (inactive)

Question: What about the GI50 (SR) of the same molecule?
Answer: > 100 µM (inactive)

Question: What about the GI50 (EKVX) of the same molecule?
Answer: > 100 µM (inactive)

Question: What about the GI50 (SK-MEL-2) of the same molecule?
Answer: > 100 µM (inactive)

Question: And the GI50 (OVCAR-5)?
Answer: > 100 µM (inactive)

Question: What about the GI50 (DU-145) of the same molecule?
Answer: 22.9 µM (inactive)

Question: And the GI50 (K562)?
Answer: > 100 µM (inactive)

Question: And the GI50 (COLO 205)?
Answer: 36.9 µM (inactive)

Question: What about the GI50 (OVCAR-3) of the same molecule?
Answer: > 100 µM (inactive)

Question: And the GI50 (RXF 393)?
Answer: > 100 µM (inactive)

Question: What about the GI50 (NCI-H522) of the same molecule?
Answer: 8.45 µM (inactive)

Question: What about the GI50 (OVCAR-8) of the same molecule?
Answer: 85.1 µM (inactive)

Question: And the GI50 (SK-OV-3)?
Answer: > 100 µM (inactive)

Question: And the GI50 (IGROV-1)?
Answer: 38.6 µM (inactive)

Question: What about the GI50 (SW-620) of the same molecule?
Answer: 11.3 µM (inactive)

Question: And the GI50 (MDA-MB-435)?
Answer: 84.9 µM (inactive)

Question: And the GI50 (U-251)?
Answer: > 100 µM (inactive)

Question: And the GI50 (SK-MEL-28)?
Answer: > 100 µM (inactive)

Question: And the GI50 (HCT-15)?
Answer: > 100 µM

Question: And the GI50 (786-0)?
Answer: 50.2 µM (inactive)

Question: And the GI50 (NCI-H226)?
Answer: > 100 µM (inactive)

Question: What about the GI50 (SN12C) of the same molecule?
Answer: 23.3 µM (inactive)

Question: And the GI50 (CAKI-1)?
Answer: 14.8 µM (inactive)

Question: What about the GI50 (NCI/ADR-RES) of the same molecule?
Answer: > 100 µM (inactive)

Question: What about the GI50 (ACHN) of the same molecule?
Answer: > 100 µM (inactive)

Question: What about the GI50 (MCF7) of the same molecule?
Answer: 28.2 µM (inactive)

Question: What about the GI50 (A498) of the same molecule?
Answer: > 100 µM (inactive)

Question: And the GI50 (SF-539)?
Answer: 31.9 µM (inactive)

Question: And the GI50 (SF-295)?
Answer: > 100 µM (inactive)

Question: And the GI50 (UACC-257)?
Answer: > 100 µM (inactive)

Question: What about the GI50 (HT-29) of the same molecule?
Answer: 53.6 µM (inactive)

Question: What about the GI50 (HOP-62) of the same molecule?
Answer: > 100 µM (inactive)

Question: What about the GI50 (A549) of the same molecule?
Answer: > 100 µM (inactive)

Question: And the GI50 (T47D)?
Answer: > 100 µM (inactive)

Question: What about the GI50 (Malme-3M) of the same molecule?
Answer: > 100 µM (inactive)

Question: What about the GI50 (SNB-75) of the same molecule?
Answer: > 100 µM (inactive)

Question: And the GI50 (MDA-N)?
Answer: 34.5 µM (inactive)

Question: And the GI50 (HL-60)?
Answer: 29.4 µM (inactive)

Question: And the GI50 (NCI-H23)?
Answer: 75 µM (inactive)

Question: What about the GI50 (UACC-62) of the same molecule?
Answer: > 100 µM (inactive)

Question: What about the GI50 (UO-31) of the same molecule?
Answer: > 100 µM (inactive)

Question: What about the GI50 (LOX IMVI) of the same molecule?
Answer: 79.4 µM (inactive)

Question: And the GI50 (SNB-19)?
Answer: > 100 µM (inactive)

Question: What about the GI50 (OVCAR-4) of the same molecule?
Answer: > 100 µM (inactive)

Question: What about the GI50 (HOP-92) of the same molecule?
Answer: > 100 µM (inactive)

Question: What about the GI50 (MDA-MB-231) of the same molecule?
Answer: 70.6 µM (inactive)

Question: What about the GI50 (MOLT-4) of the same molecule?
Answer: 37.2 µM (inactive)

Question: What about the GI50 (NCI-H460) of the same molecule?
Answer: > 100 µM (inactive)

Question: What about the GI50 (HCT-116) of the same molecule?
Answer: 42.1 µM (inactive)

Question: And the GI50 (M14)?
Answer: 75 µM (inactive)

Question: And the GI50 (CCRF-CEM)?
Answer: 21.3 µM (inactive)

Question: What about the GI50 (SF-268) of the same molecule?
Answer: > 100 µM (inactive)

Question: And the GI50 (HCC 2998)?
Answer: > 100 µM (inactive)

Question: And the GI50 (PC-3)?
Answer: > 100 µM (inactive)

Question: What about the GI50 (KM12) of the same molecule?
Answer: 65.3 µM (inactive)

Question: For `O=P(O)(O)OC1C(OP(=O)(O)O)C(OP(=O)(O)O)C(OP(=O)(O)O)C(OP(=O)(O)O)C1OP(=O)(O)O` (stereo not given) [PHYTATE], which GI50 (EKVX) is on record?
Answer: > 500 µM (inactive)

Question: For `CC(C)=CC(O)C(C(O)CCC1(C)OCCO1)S(=O)(=O)c1ccccc1` (stereo not given), which GI50 (TK-10) is on record?
Answer: > 100 µM (inactive)

Question: And the GI50 (EKVX)?
Answer: > 100 µM (inactive)

Question: What about the GI50 (SK-MEL-2) of the same molecule?
Answer: > 100 µM (inactive)

Question: And the GI50 (BT-549)?
Answer: > 100 µM (inactive)

Question: And the GI50 (OVCAR-5)?
Answer: > 100 µM (inactive)

Question: And the GI50 (COLO 205)?
Answer: > 100 µM (inactive)

Question: What about the GI50 (OVCAR-3) of the same molecule?
Answer: > 100 µM (inactive)

Question: What about the GI50 (RXF 393) of the same molecule?
Answer: > 100 µM (inactive)

Question: What about the GI50 (NCI-H522) of the same molecule?
Answer: > 100 µM (inactive)

Question: What about the GI50 (OVCAR-8) of the same molecule?
Answer: > 100 µM (inactive)

Question: And the GI50 (SK-OV-3)?
Answer: > 100 µM (inactive)

Question: And the GI50 (IGROV-1)?
Answer: > 100 µM (inactive)

Question: What about the GI50 (SW-620) of the same molecule?
Answer: > 100 µM (inactive)

Question: And the GI50 (MDA-MB-435)?
Answer: > 100 µM (inactive)

Question: What about the GI50 (U-251) of the same molecule?
Answer: > 100 µM (inactive)

Question: What about the GI50 (SK-MEL-28) of the same molecule?
Answer: > 100 µM (inactive)

Question: And the GI50 (HCT-15)?
Answer: > 100 µM

Question: And the GI50 (786-0)?
Answer: > 100 µM (inactive)

Question: And the GI50 (NCI-H226)?
Answer: > 100 µM (inactive)

Question: What about the GI50 (SN12C) of the same molecule?
Answer: > 100 µM (inactive)

Question: And the GI50 (CAKI-1)?
Answer: > 100 µM (inactive)

Question: And the GI50 (RPMI-8226)?
Answer: > 100 µM (inactive)

Question: What about the GI50 (NCI/ADR-RES) of the same molecule?
Answer: > 100 µM (inactive)

Question: And the GI50 (ACHN)?
Answer: > 100 µM (inactive)

Question: What about the GI50 (MCF7) of the same molecule?
Answer: > 100 µM (inactive)

Question: What about the GI50 (A498) of the same molecule?
Answer: > 100 µM (inactive)

Question: And the GI50 (SF-539)?
Answer: > 100 µM (inactive)

Question: What about the GI50 (SF-295) of the same molecule?
Answer: > 100 µM (inactive)

Question: And the GI50 (UACC-257)?
Answer: > 100 µM (inactive)

Question: And the GI50 (HOP-62)?
Answer: > 100 µM (inactive)

Question: What about the GI50 (A549) of the same molecule?
Answer: > 100 µM (inactive)

Question: And the GI50 (T47D)?
Answer: > 100 µM (inactive)

Question: And the GI50 (Malme-3M)?
Answer: > 100 µM (inactive)

Question: What about the GI50 (SNB-75) of the same molecule?
Answer: > 100 µM (inactive)

Question: What about the GI50 (MDA-N) of the same molecule?
Answer: > 100 µM (inactive)

Question: What about the GI50 (NCI-H23) of the same molecule?
Answer: > 100 µM (inactive)

Question: And the GI50 (UO-31)?
Answer: > 100 µM (inactive)

Question: What about the GI50 (LOX IMVI) of the same molecule?
Answer: > 100 µM (inactive)

Question: What about the GI50 (SNB-19) of the same molecule?
Answer: > 100 µM (inactive)

Question: What about the GI50 (OVCAR-4) of the same molecule?
Answer: > 100 µM (inactive)

Question: What about the GI50 (MDA-MB-231) of the same molecule?
Answer: > 100 µM (inactive)

Question: What about the GI50 (NCI-H460) of the same molecule?
Answer: > 100 µM (inactive)

Question: What about the GI50 (HCT-116) of the same molecule?
Answer: > 100 µM (inactive)

Question: And the GI50 (M14)?
Answer: > 100 µM (inactive)

Question: What about the GI50 (CCRF-CEM) of the same molecule?
Answer: > 100 µM (inactive)

Question: What about the GI50 (SF-268) of the same molecule?
Answer: > 100 µM (inactive)

Question: What about the GI50 (HCC 2998) of the same molecule?
Answer: > 100 µM (inactive)

Question: And the GI50 (PC-3)?
Answer: > 100 µM (inactive)

Question: And the GI50 (KM12)?
Answer: > 100 µM (inactive)
